Patent US20230113037A1 (Bayer Aktiengesellschaft, priority 2019, published 2023)

biological target: T1, AHR (Mus musculus, UniProt P30561); test: In vitro assay 3: antagonism in mouse cell line (AHR transactivation, firefly luciferase reporter, kynurenic acid prestimulated); format: cell-based; conditions: mouse Hepa 1c1c7 cells, 200 μM kynurenic acid, 20 hours, read-out: AHR Antagonism Mouse IC50
T1 sequence (P30561 1-848 P471L/N533S/M589L): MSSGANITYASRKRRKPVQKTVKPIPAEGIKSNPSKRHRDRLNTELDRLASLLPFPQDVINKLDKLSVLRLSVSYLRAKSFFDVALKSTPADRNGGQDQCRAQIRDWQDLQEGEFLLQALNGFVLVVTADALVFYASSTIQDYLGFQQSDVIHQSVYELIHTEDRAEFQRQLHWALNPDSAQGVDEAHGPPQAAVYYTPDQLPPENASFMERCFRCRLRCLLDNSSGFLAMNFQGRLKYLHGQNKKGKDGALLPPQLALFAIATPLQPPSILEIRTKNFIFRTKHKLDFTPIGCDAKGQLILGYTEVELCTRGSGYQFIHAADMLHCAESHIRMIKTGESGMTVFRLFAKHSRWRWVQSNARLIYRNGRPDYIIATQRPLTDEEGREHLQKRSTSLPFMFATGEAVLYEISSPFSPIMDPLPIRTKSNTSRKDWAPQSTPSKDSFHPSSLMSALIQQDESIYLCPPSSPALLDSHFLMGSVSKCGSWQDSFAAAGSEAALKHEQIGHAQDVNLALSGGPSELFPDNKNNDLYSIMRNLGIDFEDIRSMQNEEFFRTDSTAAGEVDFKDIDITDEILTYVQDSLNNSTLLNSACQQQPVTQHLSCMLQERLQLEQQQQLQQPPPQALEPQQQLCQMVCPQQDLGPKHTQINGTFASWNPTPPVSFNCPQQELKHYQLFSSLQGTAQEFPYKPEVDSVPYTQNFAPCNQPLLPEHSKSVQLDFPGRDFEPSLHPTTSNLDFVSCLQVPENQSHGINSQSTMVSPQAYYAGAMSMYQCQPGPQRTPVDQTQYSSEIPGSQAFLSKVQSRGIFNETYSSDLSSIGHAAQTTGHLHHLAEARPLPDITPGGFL
Experimental: Examples were tested in selected biological assays one or more times. When tested more than once, data are reported as either average values or as median values, wherein • the average value, also referred to as the arithmetic mean value, represents the sum of the values obtained divided by the number of times tested, and • the median value represents the middle number of the group of values when ranked in ascending or descending order. If the number of values in the data set is odd, the median is the middle value. If the number of values in the data set is even, the median is the arithmetic mean of the two middle values.
In addition the cells were stably transfected with an AHR inducible firefly luciferase reporter gene construct that carried AHR-binding sites (DRE) in its promoter. Kynurenic acid is an endogenous AHR activating ligand and was used to prestimulate test cells prior to testing the antagonistic properties of compounds.
As positive inhibition control cells without addition of kynurenic acid were incubated. Normalization was done by positive and negative controls.
Firefly luciferase activity was determined by the SteadyGlo Luciferase Assay System (Promega, #E2550).

First: O=C1NCCCC[C@@H]1Nc1nc2c(Br)cccc2c2nc(-c3cccc(F)c3)nn12 [Example 209, (3S)-3-{[7-bromo-2-(3-fluorophenyl)[1,2,4]triazolo[1,5-c]quinazolin-5-yl]amino}azepan-2-one]
Second: O=C1NCCCC[C@@H]1Nc1nc2c(Br)cccc2c2nc(-c3ccc(F)cc3)nn12 [Example 210, (3S)-3-{[7-bromo-2-(4-fluorophenyl)[1,2,4]triazolo[1,5-c]quinazolin-5-yl]amino}azepan-2-one]
The IC50 of the first is 3.1-fold higher: 15.5 nM for the first, 5.01 nM for the second.

Compared with `COc1ccc(-c2nc3c4cccc(Br)c4nc(N[C@H]4CCCCNC4=O)n3n2)cc1` [Example 211, (3S)-3-{[7-bromo-2-(4-methoxyphenyl)[1,2,4]triazolo[1,5-c]quinazolin-5-yl]amino}azepan-2-one], `COc1ccc(-c2nc3c4cccc(Br)c4nc(N[C@@H]4CCCCNC4=O)n3n2)cc1` [Example 215, (3R)-3-{[7-bromo-2-(4-methoxyphenyl)[1,2,4]triazolo[1,5-c]quinazolin-5-yl]amino}azepan-2-one] is 14-fold lower in IC50: 16.7 nM for the first, 1.23 nM for the second.

Going from `O=C1NCC[C@H]1Nc1nc2c(Br)cccc2c2nc(-c3ccc(F)cc3)nn12` [Example 217, (3R)-3-{[7-bromo-2-(4-fluorophenyl)[1,2,4]triazolo[1,5-c]quinazolin-5-yl]amino}pyrrolidin-2-one] to `O=C1NCCC[C@H]1Nc1nc2c(Br)cccc2c2nc(-c3ccc(F)cc3)nn12` [Example 226, (3R)-3-{[7-bromo-2-(4-fluorophenyl)[1,2,4]triazolo[1,5-c]quinazolin-5-yl]amino}piperidin-2-one], the IC50 falls from 2.54 nM to 1.53 nM (1.7-fold). The second is the more potent here.

`CSc1ccc(-c2nc3c4ccccc4nc(N[C@@H]4CNCCNC4=O)n3n2)cc1` [Example 256, (6R)-6-({2-[4-(methylsulfanyl)phenyl][1,2,4]triazolo[1,5-c]quinazolin-5-yl}amino)-1,4-diazepan-5-one] and `O=C1NCCNC[C@H]1Nc1nc2ccccc2c2nc(-c3ccc(F)cc3)nn12` [Example 260, (6R)-6-{[2-(4-fluorophenyl)[1,2,4]triazolo[1,5-c]quinazolin-5-yl]amino}-1,4-diazepan-5-one] are within 1.5-fold of each other in IC50: 6.94 nM for the first, 6.75 nM for the second.

Compared with `O=C1NCCNC[C@H]1Nc1nc2ccccc2c2nc(-c3ccc(C(F)(F)F)cc3)nn12` [Example 259, (6R)-6-({2-[4-(trifluoromethyl)phenyl][1,2,4]triazolo[1,5-c]quinazolin-5-yl}amino)-1,4-diazepan-5-one], `COc1ccc(-c2nc3c4cc(C(F)(F)F)ccc4nc(N[C@@H]4CNCCNC4=O)n3n2)cc1` [Example 418, (6R)-6-{[2-(4-methoxyphenyl)-9-(trifluoromethyl)[1,2,4]triazolo[1,5-c]quinazolin-5-yl]amino}-1,4-diazepan-5-one] is 14000-fold higher in IC50: 0.644 nM for the first, 8710 nM for the second. The first is the more potent here.

Compared with `Cn1cc(-c2nc3c4cccc(Br)c4nc(N[C@@H]4CNCCNC4=O)n3n2)cn1` [Example 267, (6R)-6-{[7-bromo-2-(1-methyl-1H-pyrazol-4-yl)[1,2,4]triazolo[1,5-c]quinazolin-5-yl]amino}-1,4-diazepan-5-one], `O=C1NCCNC[C@H]1Nc1nc2c(Br)cccc2c2nc(-c3ccc(F)cc3)nn12` [Example 269, (6R)-6-{[7-bromo-2-(4-fluorophenyl)[1,2,4]triazolo[1,5-c]quinazolin-5-yl]amino}-1,4-diazepan-5-one] is 21-fold lower in IC50: 24.7 nM for the first, 1.2 nM for the second.

Going from `COc1ccc(-c2nc3c4cc(C)ccc4nc(N[C@@H]4CNCCNC4=O)n3n2)cc1` [Example 280, (6R)-6-{[2-(4-methoxyphenyl)-9-methyl[1,2,4]triazolo[1,5-c]quinazolin-5-yl]amino}-1,4-diazepan-5-one] to `COc1ccc(-c2nc3c4c(C)cccc4nc(N[C@@H]4CNCCNC4=O)n3n2)cc1` [Example 290, (6R)-6-{[2-(4-methoxyphenyl)-10-methyl[1,2,4]triazolo[1,5-c]quinazolin-5-yl]amino}-1,4-diazepan-5-one], the IC50 rises from 33.3 nM to 288 nM (8.6-fold).

First: O=C1NCCNCC1Nc1nc2cccc(Br)c2c2nc(-c3ccc(F)cc3)nn12 (stereo not drawn) [Example 282, 6-{[10-bromo-2-(4-fluorophenyl)[1,2,4]triazolo[1,5-c]quinazolin-5-yl]amino}-1,4-diazepan-5-one]
Second: O=C1NCCNCC1Nc1nc2cccc(Cl)c2c2nc(-c3ccc(F)cc3)nn12 (stereo not drawn) [Example 293, 6-{[10-chloro-2-(4-fluorophenyl)[1,2,4]triazolo[1,5-c]quinazolin-5-yl]amino}-1,4-diazepan-5-one]
The IC50 of the first is 2.1-fold lower: 26.9 nM for the first, 56.1 nM for the second. The first is the more potent here.

Compared with `O=C1NCCNCC1Nc1nc2cccc(Br)c2c2nc(-c3cccc(F)c3)nn12` (stereo not drawn) [Example 283, 6-{[10-bromo-2-(3-fluorophenyl)[1,2,4]triazolo[1,5-c]quinazolin-5-yl]amino}-1,4-diazepan-5-one], `COc1ccc(-c2nc3c4c(Cl)cccc4nc(NC4CNCCNC4=O)n3n2)cc1` (stereo not drawn) [Example 292, 6-{[10-chloro-2-(4-methoxyphenyl)[1,2,4]triazolo[1,5-c]quinazolin-5-yl]amino}-1,4-diazepan-5-one] is 4.3-fold lower in IC50: 172 nM for the first, 40.3 nM for the second.

First: Cn1cc(-c2nc3c4c(C5CC5)cccc4nc(NC4CNCCNC4=O)n3n2)cn1 (stereo not drawn) [Example 294, 6-{[10-cyclopropyl-2-(1-methyl-1H-pyrazol-4-yl)[1,2,4]triazolo[1,5-c]quinazolin-5-yl]amino}-1,4-diazepan-5-one]
Second: O=C1NCCNC[C@H]1Nc1nc2ccccc2c2nc(-c3cnn(CCO)c3)nn12 [Example 414, (6R)-5-({2-[1-(2-hydroxyethyl)-1H-pyrazol-4-yl][1,2,4]triazolo[1,5-c]quinazolin-5-yl}amino)-1,4-diazepan-5-one]
The IC50 of the first is lower: 5430 nM for the first, > 20000 nM for the second.

`O=C1NCC[C@H]1Nc1nc2ccccc2c2nc(-c3ccc(OC(F)(F)F)cc3)nn12` [Example 327, (3R)-3-({2-[4-(trifluoromethoxy)phenyl][1,2,4]triazolo[1,5-c]quinazolin-5-yl}amino)pyrrolidin-2-one] and `O=C1NCCC[C@H]1Nc1nc2ccccc2c2nc(-c3ccc(OC(F)(F)F)cc3)nn12` [Example 332, (3R)-3-({2-[4-(trifluoromethoxy)phenyl][1,2,4]triazolo[1,5-c]quinazolin-5-yl}amino)piperidin-2-one] are within 1.5-fold of each other in IC50: 5.29 nM for the first, 6.04 nM for the second.

Going from `CN1CC[C@@H](Nc2nc3ccccc3c3nc(-c4ccc(OC(F)(F)F)cc4)nn23)C1=O` [Example 328, (3R)-1-methyl-3-({2-[4-(trifluoromethoxy)phenyl][1,2,4]triazolo[1,5-c]quinazolin-5-yl}amino)pyrrolidin-2-one] to `N#Cc1ccc(-c2nc3c4ccccc4nc(N[C@@H]4CCNC4=O)n3n2)cc1` [Example 388, 4-(5-{[(3R)-2-oxopyrrolidin-3-yl]amino}[1,2,4]triazolo[1,5-c]quinazolin-2-yl)benzonitrile], the IC50 rises from 19.3 nM to 2890 nM (150-fold). The first is the more potent here.

Going from `O=C1NCCNC[C@H]1Nc1nc2c(F)cccc2c2nc(-c3ccc(F)cc3)nn12` [Example 427, (6R)-6-{[7-fluoro-2-(4-fluorophenyl)[1,2,4]triazolo[1,5-c]quinazolin-5-yl]amino}-1,4-diazepan-5-one] to `O=C1NCCC[C@H]1Nc1nc2ccccc2c2nc(-c3ccccc3Br)nn12` [Example 454, (3R)-3-{[2-(2-bromophenyl)[1,2,4]triazolo[1,5-c]quinazolin-5-yl]amino}piperidin-2-one], the IC50 rises from 3.16 nM to 165 nM (52-fold).

Compared with `CC[C@H](Nc1nc2ccccc2c2nc(-c3cccc(OC(F)(F)F)c3)nn12)C(N)=O` [Example 448, (2S)-2-({2-[3-(trifluoromethoxy)phenyl][1,2,4]triazolo[1,5-c]quinazolin-5-yl}amino)butanamide], `CC[C@H](Nc1nc2ccccc2c2nc(-c3ccccc3OC(F)(F)F)nn12)C(N)=O` [Example 462, (2S)-2-({2-[2-(trifluoromethoxy)phenyl][1,2,4]triazolo[1,5-c]quinazolin-5-yl}amino)butanamide] is 1.7-fold lower in IC50: 134 nM for the first, 81.2 nM for the second.

With `O=C1NCCCC[C@@H]1Nc1nc2ccccc2c2nc(-c3ccccc3Br)nn12` [Example 453, (3S)-3-{[2-(2-bromophenyl)[1,2,4]triazolo[1,5-c]quinazolin-5-yl]amino}azepan-2-one] the IC50 was 17.5 nM.

same assay, conditions: read-out: AHR Antagonism Mouse IC50, mouse Hepa 1c1c7 cells, 200 μM kynurenic acid, 20 hours

`O=C1NCCCC[C@@H]1Nc1nc2ccccc2c2nc(-c3cc(C(F)(F)F)ccn3)nn12` [Example 364] gave an IC50 of 247 nM.
